Test results: US20060093597A1, “Methods of treating involuntary facial spasms and facial wrinkles” (priority 2002, published 2006)
Where two headings read alike, the source gives them in different places.

Columns and labels:
[1] = tested on: Botox-induced symptoms; format: in vivo, mouse; settings: for reading of Botox-induced muscle weakness after topical DAP: n=7
[2] = tested on: mice; settings: effective-dose comparison with PMB; cited from earlier work
[3] = in vivo; cited from earlier work
[4] = tested on: neuromuscular blockade; settings: effective-dose comparison with PMB; cited from earlier work
[5] = tested on: eukaryotic cytotoxicity; settings: cited from earlier work
[6] = tested on: various bacteria; settings: cited from earlier work
[7] = tested on: rat mast cells; settings: cited from earlier work

Compound	reading of Botox-induced muscle weakness after topical DAP ([1]; at 1 hour)	reading of Botox-induced muscle weakness after topical DAP ([1]; at 4 hour)	reading later in the experiment ([1]; mouse, in vivo)	response to topical administration ([1]; mouse, in vivo)	fold less toxic than PMB, acute toxicity [2] [times]	half-life [3]	fold less active than PMB in causing neuromuscular blockade [4] [times]	fold less toxic than PMB, cytotoxicity [5] [times]	MIC compared to parent molecule PMB [6]	fold less active than PMB in releasing histamine [7] [time]
Nc1ccncc1N [DAP, 3,4-diaminopyridine]	1.5	0.75	the reading went up	rapid response	–	–	–	–	–	–
Polymyxin B nonapeptide [PMBN]	–	–	–	–	15	approximately 25 minutes	150	100	increased up to thousand folds	25
